The values below come from PMC5463734, “Structure-guided optimization of quinoline inhibitors of Plasmodium N-myristoyltransferase” (MedChemComm, 2016).

Several values for one entry are separate records, joined by “and”; a condition that tells them apart may be missing. Equal entries are not always repeated. Where two headings read alike, the source gives them in different places.

The nature of series [1]: stability in phosphate buffered solutions used for enzymatic assay. Type of series: physicochemical. The source says: It is well known that 2-cyanoethylthioethers can be cleaved in the presence of weak bases such as ammonia through a retro-Michael reaction.[27]
Series [2] deals with T1, recombinant P. vivax NMT (PvNMT) (Plasmodium vivax, UniProt A5K1A2).
T1 sequence (A5K1A2 1-410): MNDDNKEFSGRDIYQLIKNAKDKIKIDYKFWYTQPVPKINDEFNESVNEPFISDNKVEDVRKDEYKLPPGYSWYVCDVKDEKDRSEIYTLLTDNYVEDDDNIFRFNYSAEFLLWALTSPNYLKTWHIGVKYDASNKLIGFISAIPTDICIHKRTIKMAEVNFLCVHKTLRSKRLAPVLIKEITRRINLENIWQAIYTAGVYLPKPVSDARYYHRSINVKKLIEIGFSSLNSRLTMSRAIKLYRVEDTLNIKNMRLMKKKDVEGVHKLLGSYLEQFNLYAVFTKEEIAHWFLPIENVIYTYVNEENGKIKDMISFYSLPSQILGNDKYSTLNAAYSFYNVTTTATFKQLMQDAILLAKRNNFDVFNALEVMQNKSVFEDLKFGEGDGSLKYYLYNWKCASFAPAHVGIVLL
More on the design: method as in PMID 22439843. As to conditions: recombinant enzyme; read-out: Ki app PvNMT; cited from earlier work.

Series [3] deals with T1, recombinant P. vivax NMT (PvNMT). In words: biochemical. Type of series: biochemical. As to conditions: for LipE: lipophilic efficiency, LipE = –log(Ki) – clog P, based on PvNMT data; for Ki: recombinant enzyme, mean ± SD from duplicates, Ki app from IC50 by Cheng-Prusoff. How it is done:
(§1) The only residue in the inhibitor-binding pocket that differs between these NMTs is Tyr334 (Pv numbering), which is replaced by a phenylalanine in PfNMT.
(§2) Final compounds were tested using a previously described fluorogenic 96-well plate assay for PvNMT,2 PfNMT3 and […]
(§3) nonlinear regression fitting using GraFit 7.0 (Erithacus Software Ltd., U.K.). Apparent inhibition constants, Kiapp, were calculated from experimental IC50 using Cheng-Prussof equation.5

The target of series [4] is T2, recombinant P. falciparum NMT (PfNMT) (Plasmodium falciparum, UniProt Q9U419).
T2 sequence (Q9U419 1-410): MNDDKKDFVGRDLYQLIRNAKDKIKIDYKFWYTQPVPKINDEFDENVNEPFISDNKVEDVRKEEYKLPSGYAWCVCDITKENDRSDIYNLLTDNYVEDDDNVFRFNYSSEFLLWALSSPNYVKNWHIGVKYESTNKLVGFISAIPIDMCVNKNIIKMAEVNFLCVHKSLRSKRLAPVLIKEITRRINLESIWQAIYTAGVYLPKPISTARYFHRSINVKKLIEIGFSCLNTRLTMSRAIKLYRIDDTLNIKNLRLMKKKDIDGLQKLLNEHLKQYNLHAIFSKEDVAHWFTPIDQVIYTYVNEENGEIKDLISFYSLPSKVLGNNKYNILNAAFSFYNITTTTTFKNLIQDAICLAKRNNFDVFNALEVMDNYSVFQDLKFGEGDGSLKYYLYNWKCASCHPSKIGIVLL
In words: fluorogenic 96-well plate enzymatic assay for PfNMT activity. Type of series: biochemical. As to conditions: for totally inactive on PfNMT up to: highest concentration without activity; for Ki: recombinant enzyme, mean ± SD from duplicates, Ki app from IC50 by Cheng-Prusoff. How it is done: as §1, §2, §3

Series [5] has as its target T3, recombinant H. sapiens NMT isoform 1 (HsNMT1) (Homo sapiens, UniProt P30419).
T3 sequence (P30419 1-496): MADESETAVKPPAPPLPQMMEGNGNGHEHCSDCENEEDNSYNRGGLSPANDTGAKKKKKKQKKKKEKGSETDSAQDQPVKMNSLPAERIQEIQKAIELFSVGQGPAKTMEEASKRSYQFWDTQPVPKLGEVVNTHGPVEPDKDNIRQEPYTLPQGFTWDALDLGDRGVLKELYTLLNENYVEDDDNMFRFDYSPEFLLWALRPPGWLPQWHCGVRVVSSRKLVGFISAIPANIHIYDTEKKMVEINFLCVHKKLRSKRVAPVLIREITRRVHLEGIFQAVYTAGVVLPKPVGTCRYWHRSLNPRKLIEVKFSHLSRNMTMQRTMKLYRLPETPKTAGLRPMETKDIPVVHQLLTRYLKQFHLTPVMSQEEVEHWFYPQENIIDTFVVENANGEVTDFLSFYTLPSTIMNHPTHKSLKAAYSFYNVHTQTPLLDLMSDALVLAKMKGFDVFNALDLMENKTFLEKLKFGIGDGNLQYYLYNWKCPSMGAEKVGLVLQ
As to the kind of experiment: fluorogenic 96-well plate enzymatic assay for HsNMT1 activity. Type of series: biochemical. As to conditions: for Ki: recombinant enzyme, mean ± SD from duplicates, Ki app from IC50 by Cheng-Prusoff. How it is done:
as §2, §3

The target in series [6] is T4, recombinant H. sapiens NMT isoform 2 (HsNMT2) (Homo sapiens, UniProt O60551).
T4 sequence (O60551 1-498): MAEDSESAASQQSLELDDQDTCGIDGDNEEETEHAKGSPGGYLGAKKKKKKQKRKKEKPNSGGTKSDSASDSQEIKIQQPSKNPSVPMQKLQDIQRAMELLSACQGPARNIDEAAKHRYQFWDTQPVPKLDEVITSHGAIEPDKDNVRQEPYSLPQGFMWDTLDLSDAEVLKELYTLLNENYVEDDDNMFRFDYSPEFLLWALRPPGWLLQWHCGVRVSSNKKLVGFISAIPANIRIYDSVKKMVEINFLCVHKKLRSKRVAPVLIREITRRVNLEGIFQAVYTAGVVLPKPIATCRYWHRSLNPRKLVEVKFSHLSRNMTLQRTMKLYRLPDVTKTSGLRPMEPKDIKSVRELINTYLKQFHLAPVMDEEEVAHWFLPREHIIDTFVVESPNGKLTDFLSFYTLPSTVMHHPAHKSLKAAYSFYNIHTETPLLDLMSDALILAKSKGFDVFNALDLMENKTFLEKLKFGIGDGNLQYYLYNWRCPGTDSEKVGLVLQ
In words: fluorogenic 96-well plate enzymatic assay for HsNMT2 activity. The conditions noted are these: for Ki: recombinant enzyme, mean ± SD from duplicates, Ki app from IC50 by Cheng-Prusoff. Type of series: biochemical. How it is done:
as §2, §3

Series [7] is described as follows: solubility in assay buffer. As to conditions: could not be evaluated.

Take `CCOC(=O)c1cnc2ccc(OC)cc2c1SCCC#N` [Compound 1, ethyl 4-((2-cyanoethyl)thio)-6-methoxyquinoline-3-carboxylate]: the “stability in phosphate buffered solutions” value in series [1] is “fully stable”. Moreover, in series [2], the Ki is 4700 nM and 4740 nM.
With `CCOC(=O)c1cnc2ccc(OCc3ccccc3)cc2c1SCCC#N` [Compound 4], the “fold improvement in activity compared to the original methoxy compound” value in series [3] (6-benzyloxy vs 6-methoxy compound 1) was 8 fold. Also, the LipE in series [3] came out at 1.90. Moreover, the Ki in series [3] (read-out: Ki app PvNMT) is 550 ± 60 nM; in series [4] (read-out: Ki app PfNMT), more than 10000 nM; in series [5], more than 10000 nM. Further, the “totally inactive on PfNMT up to” value in series [4] was more than 100 µM.
With `CCCSc1c(C(=O)OCC)cnc2ccc(OCc3ccccc3)cc12` [Compound 5], the LipE in series [3] was 0.22. Besides, the Ki in series [3] (read-out: Ki app PvNMT) was 2080 ± 140 nM; in series [4] (read-out: Ki app PfNMT), 1100 ± 80 nM; in series [5], 3360 ± 370 nM; in series [6], more than 10000 nM. In addition, the “fold improvement in activity versus PfNMT” value in series [4] (n-propyl thioether vs 2-cyanoethyl thioether) is on record as more than 10 fold.
`CCOC(=O)c1cnc2ccc(OCc3ccccc3)cc2c1SC(C)C` [Compound 6]: the Ki in series [4] (Ki app PfNMT) is 1990 ± 300 nM; in series [5], 4840 ± 640 nM; in series [6], more than 10000 nM.
In the case of `CCOC(=O)c1cnc2ccc(OCc3ccccc3)cc2c1SCC` [Compound 7], the LipE in series [3] is 1.42. The Ki worked out at 440 ± 50 nM in series [3] (read-out: Ki app PvNMT), 670 ± 40 nM in series [4] (read-out: Ki app PfNMT), 1560 ± 220 nM in series [5] and 4230 ± 530 nM in series [6].
With `CCOC(=O)c1cnc2ccc(OCc3ccccc3)cc2c1SC` [Compound 8], the LipE in series [3] stood at 0.69. The Ki in series [3] (read-out: Ki app PvNMT) came out at 4140 ± 410 nM; in series [4] (read-out: Ki app PfNMT), 5900 ± 600 nM.
In the case of `CCOC(=O)c1cnc2ccc(OCc3ccccc3)cc2c1[S+]([O-])CC` (stereo not drawn) [Compound 9], the LipE in series [3] was 2.46. Also, the Ki is 1750 ± 120 nM in series [3] (read-out: Ki app PvNMT), 5650 ± 1240 nM in series [4] (read-out: Ki app PfNMT), 3600 ± 300 nM in series [5] and more than 10000 nM in series [6].
As for `CCOC(=O)c1cnc2ccc(OCc3ccccc3)cc2c1S(=O)(=O)CC` [Compound 10], the LipE in series [3] was found to be 2.34. The Ki in series [3] (read-out: Ki app PvNMT) was 1780 ± 470 nM; in series [4] (read-out: Ki app PfNMT), more than 10000 nM; in series [5], more than 10000 nM; in series [6], more than 10000 nM.
For `CCSc1c(CO)cnc2ccc(OCc3ccccc3)cc12` [Compound 11], the LipE in series [3] turned out to be 1.57. Besides, the Ki in series [3] (read-out: Ki app PvNMT) was 4190 ± 550 nM; in series [4] (read-out: Ki app PfNMT), more than 10000 nM; in series [5] it was more than 10000 nM; in series [6] it was more than 10000 nM.
Turning to `CCOCc1cnc2ccc(OCc3ccccc3)cc2c1SCC` [Compound 12], the LipE in series [3] is 0.72. Moreover, the Ki was 2920 ± 150 nM in series [3] (read-out: Ki app PvNMT), 2690 ± 510 nM in series [4] (read-out: Ki app PfNMT), more than 10000 nM in series [5] and more than 10000 nM in series [6].
For the molecule `CCNC(=O)c1cnc2ccc(OCc3ccccc3)cc2c1SCC` [Compound 13], the LipE in series [3] is reported as 2.46. Further, the Ki is 340 ± 50 nM in series [3] (read-out: Ki app PvNMT), 960 ± 110 nM in series [4] (read-out: Ki app PfNMT), 1050 ± 115 nM in series [5] and more than 10000 nM in series [6]. Moreover, the “selectivity versus HsNMT1” value in series [5] (relative to PvNMT) turned out to be 3 fold. In series [6] (relative to PvNMT), the “selectivity versus HsNMT2” value is given as 30 fold.
As for `CCSc1c(C(=O)N(CC)CC)cnc2ccc(OCc3ccccc3)cc12` [Compound 14], the LipE in series [3] amounted to 1.80. The Ki in series [3] (read-out: Ki app PvNMT) worked out at 410 ± 60 nM; in series [4] (read-out: Ki app PfNMT), 940 ± 90 nM; in series [5] it was 1020 ± 130 nM; in series [6], 3530 ± 400 nM.
As to `CCSc1c(C(=O)N2CCCC2)cnc2ccc(OCc3ccccc3)cc12` [Compound 15], the LipE in series [3] is 1.74. In addition, the Ki is 960 ± 130 nM in series [3] (read-out: Ki app PvNMT), 1520 ± 290 nM in series [4] (read-out: Ki app PfNMT), 1360 ± 210 nM in series [5] and more than 10000 nM in series [6].
On to `CCSc1c(C(=O)Nc2ccccc2)cnc2ccc(OCc3ccccc3)cc12` [Compound 16], for which, in series [7], the solubility entry is given as “poorly soluble”.
In the case of `CCSc1c(C(=O)Nc2nccs2)cnc2ccc(OCc3ccccc3)cc12` [Compound 17], in series [7], the solubility entry was “poorly soluble”.
As to `CCSc1c(C(=O)NCCO)cnc2ccc(OCc3ccccc3)cc12` [Compound 18], in series [3], the LipE was 2.36. The Ki in series [3] (read-out: Ki app PvNMT) was 2840 ± 380 nM; in series [4] (read-out: Ki app PfNMT), 8000 ± 3980 nM; in series [5], more than 10000 nM; in series [6], more than 10000 nM.
As to `CCSc1c(C(=O)N2CCOCC2)cnc2ccc(OCc3ccccc3)cc12` [Compound 19], the Ki was 200 ± 20 nM in series [3] (Ki app PvNMT), 330 ± 20 nM in series [4] (Ki app PfNMT) and 590 ± 50 nM in series [6].
As for `CCOC(=O)c1cnc2ccc(OCc3ccc(NCCN)nc3)cc2c1SCC` [Compound 24], in series [3], the LipE is 3.57. In addition, the Ki in series [3] (read-out: Ki app PvNMT) is 280 ± 20 nM; in series [4] (read-out: Ki app PfNMT), 1250 ± 80 nM; in series [5] it was 50 ± 10 nM; in series [6], 410 ± 70 nM.
As for `CCCCc1c(C)nc2ccc(OC)cc2c1SCCC#N` [MRT00057965, 3-butyl-4-((2-cyanoethyl)thio)-6-methoxy-2-methylquinoline], the “totally inactive on PfNMT up to” value in series [4] is more than 100 µM.
